{
  "source": "patent US6358885B1",
  "about": "“Substituted phenylheterocyclic herbicides” (Mississippi State University, priority 1992, dated 2002)",
  "key": {"[1]": {"test_system": "smooth crabgrass", "assay": "Test G preemergence/postemergence greenhouse plant response rating 0 to 100", "format": "in vivo, Digitaria ischaemum", "settings": "0 to 100 scale", "method_in_brief": "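Greenhouse pots, one species each; non-phytotoxic solvent vehicle. Read-out: visual injury vs untreated, 13–21 DAT. Dash denotes no result.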"}, "[2]": {"test_system": "chickweed", "assay": "Test B preemergence/postemergence greenhouse plant response rating 0 to 10", "format": "in vivo, Stellaria media", "settings": "POSTEMERGENCE, 0 to 10 scale", "method_in_brief": "(§1)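 Planted seeds are treated preemergence with compound dissolved in a non-phytotoxic solvent, while postemergence applications go onto plants of two to eighteen cm. Plants stay in the greenhouse twelve to sixteen days and are then rated visually relative to controls.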"}, "[3]": {"test_system": "sugar beet", "assay": "Test C preemergence/postemergence greenhouse plant response rating 0 to 100", "format": "in vivo, Beta vulgaris", "settings": "POSTEMERGENCE", "method_in_brief": "(§2)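 Compounds in non-phytotoxic solvent went onto sandy loam before emergence (seeded one day earlier) or onto plants at the one-to-four leaf stage. Duck salad was treated via flood water (~2.5 cm, maintained) over silt loam.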"}, "[4]": {"test_system": "downy brome", "assay": "Test C preemergence/postemergence greenhouse plant response rating 0 to 100", "format": "in vivo, Bromus tectorum", "settings": "POSTEMERGENCE", "method_in_brief": "as §2"}, "[5]": {"test_system": "bedstraw", "assay": "Test C preemergence/postemergence greenhouse plant response rating 0 to 100", "format": "in vivo, Galium aparine", "settings": "POSTEMERGENCE", "method_in_brief": "as §2"}, "[6]": {"test_system": "rape", "assay": "Test B preemergence/postemergence greenhouse plant response rating 0 to 10", "format": "in vivo, Brassica napus", "settings": "0 to 10 scale", "method_in_brief": "as §1"}, "[7]": {"test_system": "umbrella sedge", "assay": "Test C flood test plant response rating 0 to 100", "format": "in vivo, Cyperus difformis", "method_in_brief": "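Compounds in non-phytotoxic solvent applied preemergence to sandy loam one day after planting, postemergence at the 1–4 leaf stage, or to ~2.5 cm floodwater over silt loam.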"}, "[8]": {"test_system": "wild buckwheat", "assay": "Test B preemergence/postemergence greenhouse plant response rating 0 to 10", "format": "in vivo, Polygonum convolvulus", "settings": "0 to 10 scale", "method_in_brief": "as §1"}, "[9]": {"test_system": "barnyardgrass", "assay": "Test B preemergence/postemergence greenhouse plant response rating 0 to 10", "format": "in vivo, Echinochloa crus-galli", "settings": "0 to 10 scale", "method_in_brief": "as §1"}, "[10]": {"test_system": "ryegrass", "assay": "Test C preemergence/postemergence greenhouse plant response rating 0 to 100", "format": "in vivo, Lolium multiflorum", "settings": "POSTEMERGENCE", "method_in_brief": "as §2"}, "[11]": {"test_system": "corn", "assay": "Test C preemergence/postemergence greenhouse plant response rating 0 to 100", "format": "in vivo, Zea mays", "settings": "POSTEMERGENCE", "method_in_brief": "as §2"}, "[12]": {"test_system": "wild oat", "assay": "Test C preemergence/postemergence greenhouse plant response rating 0 to 100", "format": "in vivo, Avena fatua", "settings": "POSTEMERGENCE", "method_in_brief": "as §2"}, "[13]": {"test_system": "crabgrass", "assay": "Test C preemergence/postemergence greenhouse plant response rating 0 to 100", "format": "in vivo, Digitaria sanguinalis", "settings": "POSTEMERGENCE", "method_in_brief": "as §2"}},
  "data": [
    {"compound": "C#CCN1C(=O)COc2cc(F)c(-c3nn4c(c3Cl)CCCC4)cc21", "note": "[Compound 34]", "values": [
      {"measurement": "Plant response rating, Smooth Crabgras", "setting": "[1]; POSTEMERGENCE, Rate 125 g/ha", "result": 0},
      {"measurement": "Plant response rating, Smooth Crabgras", "setting": "[1]; POSTEMERGENCE, Rate 250 g/ha", "result": 0},
      {"measurement": "Plant response rating, Smooth Crabgras", "setting": "[1]; PREEMERGENCE, Rate 125 g/ha", "result": 0},
      {"measurement": "Plant response rating, Smooth Crabgras", "setting": "[1]; PREEMERGENCE, Rate 250 g/ha", "result": 80},
      {"measurement": "Plant response rating, Chickweed", "setting": "[2]; Rate 10 g/ha", "result": 10},
      {"measurement": "Plant response rating, Chickweed", "setting": "[2]; Rate 50 g/ha", "result": 10},
      {"measurement": "Plant response rating, Sugar beet", "setting": "[3]; 62 g/ha, 0 to 100 scale", "result": 100},
      {"measurement": "Plant response rating (0 to 100), Sugar beet", "setting": "[3]; Rate 4 g/ha", "result": 80},
      {"measurement": "Plant response rating (0 to 100), Sugar beet", "setting": "[3]; Rate 16 g/ha", "result": 100},
      {"measurement": "Plant response rating Downy Brome", "setting": "[4]; 62 g/ha, 0 to 100 scale", "result": 50},
      {"measurement": "Plant response rating (0 to 100), Downy Brome", "setting": "[4]; Rate 1 g/ha", "result": 20},
      {"measurement": "Plant response rating (0 to 100), Downy Brome", "setting": "[4]; Rate 4 g/ha", "result": 30},
      {"measurement": "Plant response rating (0 to 100), Downy Brome", "setting": "[4]; Rate 16 g/ha", "result": 40},
      {"measurement": "Plant response rating, Bedstraw", "setting": "[5]; 62 g/ha, 0 to 100 scale", "result": 100},
      {"measurement": "Plant response rating (0 to 100), Bedstraw", "setting": "[5]; Rate 1 g/ha", "result": 30},
      {"measurement": "Plant response rating (0 to 100), Bedstraw", "setting": "[5]; Rate 4 g/ha", "result": 95},
      {"measurement": "Plant response rating (0 to 100), Bedstraw", "setting": "[5]; Rate 16 g/ha", "result": 100},
      {"measurement": "Plant response rating, Rape", "setting": "[6]; POSTEMERGENCE, Rate 10 g/ha", "result": 10},
      {"measurement": "Plant response rating, Rape", "setting": "[6]; POSTEMERGENCE, Rate 50 g/ha", "result": 10},
      {"measurement": "Plant response rating, Rape", "setting": "[6]; PREEMERGENCE, Rate 50 g/ha", "result": 6},
      {"measurement": "Plant response rating (0 to 100), Umbrella sedge", "setting": "[7]; POSTEMERGENCE section, flood test, Rate 1 g/ha", "result": 0},
      {"measurement": "Plant response rating (0 to 100), Umbrella sedge", "setting": "[7]; POSTEMERGENCE section, flood test, Rate 4 g/ha", "result": 0},
      {"measurement": "Plant response rating (0 to 100), Umbrella sedge", "setting": "[7]; Rate 16 g/ha, under POSTEMERGENCE head (flood test species)", "result": 60},
      {"measurement": "Plant response rating Umbrella sedge", "setting": "[7]; flood test species listed under POSTEMERGENCE, 62 g/ha, 0 to 100 scale", "result": 80},
      {"measurement": "Plant response rating, Wild buckwheat", "setting": "[8]; POSTEMERGENCE, Rate 10 g/ha", "result": 10},
      {"measurement": "Plant response rating, Wild buckwheat", "setting": "[8]; POSTEMERGENCE, Rate 50 g/ha", "result": 10},
      {"measurement": "Plant response rating, Wild buckwheat", "setting": "[8]; PREEMERGENCE, Rate 50 g/ha", "result": 8},
      {"measurement": "Plant response rating, Barnyardgrass", "setting": "[9]; POSTEMERGENCE, Rate 10 g/ha", "result": 4},
      {"measurement": "Plant response rating, Barnyardgrass", "setting": "[9]; POSTEMERGENCE, Rate 50 g/ha", "result": 5},
      {"measurement": "Plant response rating, Barnyardgrass", "setting": "[9]; PREEMERGENCE, Rate 10 g/ha", "result": 3},
      {"measurement": "Plant response rating, Barnyardgrass", "setting": "[9]; PREEMERGENCE, Rate 50 g/ha", "result": 4},
      {"measurement": "Plant response rating Ryegrass", "setting": "[10]; 62 g/ha, 0 to 100 scale", "result": 30},
      {"measurement": "Plant response rating (0 to 100), Ryegrass", "setting": "[10]; Rate 1 g/ha", "result": 10},
      {"measurement": "Plant response rating (0 to 100), Ryegrass", "setting": "[10]; Rate 4 g/ha", "result": 20},
      {"measurement": "Plant response rating (0 to 100), Ryegrass", "setting": "[10]; Rate 16 g/ha", "result": 30},
      {"measurement": "Plant response rating, Corn", "setting": "[11]; 62 g/ha, 0 to 100 scale", "result": 50},
      {"measurement": "Plant response rating (0 to 100), Corn", "setting": "[11]; Rate 1 g/ha", "result": 20},
      {"measurement": "Plant response rating (0 to 100), Corn", "setting": "[11]; Rate 4 g/ha", "result": 30},
      {"measurement": "Plant response rating (0 to 100), Corn", "setting": "[11]; Rate 16 g/ha", "result": 40},
      {"measurement": "Plant response rating, Wild oat", "setting": "[12]; 62 g/ha, 0 to 100 scale", "result": 30},
      {"measurement": "Plant response rating (0 to 100), Wild oat", "setting": "[12]; Rate 1 g/ha", "result": 10},
      {"measurement": "Plant response rating (0 to 100), Wild oat", "setting": "[12]; Rate 4 g/ha", "result": 20},
      {"measurement": "Plant response rating (0 to 100), Wild oat", "setting": "[12]; Rate 16 g/ha", "result": 20},
      {"measurement": "Plant response rating, Crabgrass", "setting": "[13]; 62 g/ha, 0 to 100 scale", "result": 60},
      {"measurement": "Plant response rating (0 to 100), Crabgrass", "setting": "[13]; Rate 1 g/ha", "result": 10},
      {"measurement": "Plant response rating (0 to 100), Crabgrass", "setting": "[13]; Rate 4 g/ha", "result": 20},
      {"measurement": "Plant response rating (0 to 100), Crabgrass", "setting": "[13]; Rate 16 g/ha", "result": 30}
    ]}
  ]
}
